Columns and labels:
Complement factor D = Complement factor D (Homo sapiens, UniProt P00746); experiment: Binding affinity to factor D (unknown origin) assessed as inhibition constant
[1] = molecular target: T1, Complement C1s subcomponent (Homo sapiens, UniProt P09871); experiment: Binding affinity to human C1S assessed as inhibition constant
T1 sequence (P09871 whole entry): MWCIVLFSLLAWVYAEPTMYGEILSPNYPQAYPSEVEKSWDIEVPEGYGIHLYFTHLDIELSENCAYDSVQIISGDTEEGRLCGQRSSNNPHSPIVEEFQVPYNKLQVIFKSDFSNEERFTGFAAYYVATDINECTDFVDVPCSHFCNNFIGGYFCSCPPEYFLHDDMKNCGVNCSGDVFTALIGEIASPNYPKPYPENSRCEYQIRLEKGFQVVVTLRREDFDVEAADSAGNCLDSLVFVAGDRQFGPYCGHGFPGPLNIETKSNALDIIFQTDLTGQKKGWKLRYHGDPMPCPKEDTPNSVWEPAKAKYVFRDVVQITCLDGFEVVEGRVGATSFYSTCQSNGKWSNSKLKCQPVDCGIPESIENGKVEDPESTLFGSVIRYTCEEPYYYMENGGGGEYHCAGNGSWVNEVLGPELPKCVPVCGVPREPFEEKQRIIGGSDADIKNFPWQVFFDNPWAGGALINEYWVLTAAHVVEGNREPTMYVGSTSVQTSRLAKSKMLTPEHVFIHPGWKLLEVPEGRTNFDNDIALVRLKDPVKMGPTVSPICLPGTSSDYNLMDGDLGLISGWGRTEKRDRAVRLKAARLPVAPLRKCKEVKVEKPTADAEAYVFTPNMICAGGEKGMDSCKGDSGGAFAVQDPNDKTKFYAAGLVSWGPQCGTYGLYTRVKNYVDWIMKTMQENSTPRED

Trypsin = Trypsin (Homo sapiens, UniProt P07477+P07478+P35030); experiment: Binding affinity to trypsin (unknown origin) assessed as inhibition constant; assay type: protein assay
Prothrombin = Prothrombin (Homo sapiens, UniProt P00734); experiment: Binding affinity to thrombin (unknown origin) assessed as inhibition constant
[2] = molecular target: T2, Complement C1r subcomponent (Homo sapiens, UniProt P00736); experiment: Binding affinity to C1R (unknown origin) assessed as inhibition constant
T2 sequence (P00736 whole entry): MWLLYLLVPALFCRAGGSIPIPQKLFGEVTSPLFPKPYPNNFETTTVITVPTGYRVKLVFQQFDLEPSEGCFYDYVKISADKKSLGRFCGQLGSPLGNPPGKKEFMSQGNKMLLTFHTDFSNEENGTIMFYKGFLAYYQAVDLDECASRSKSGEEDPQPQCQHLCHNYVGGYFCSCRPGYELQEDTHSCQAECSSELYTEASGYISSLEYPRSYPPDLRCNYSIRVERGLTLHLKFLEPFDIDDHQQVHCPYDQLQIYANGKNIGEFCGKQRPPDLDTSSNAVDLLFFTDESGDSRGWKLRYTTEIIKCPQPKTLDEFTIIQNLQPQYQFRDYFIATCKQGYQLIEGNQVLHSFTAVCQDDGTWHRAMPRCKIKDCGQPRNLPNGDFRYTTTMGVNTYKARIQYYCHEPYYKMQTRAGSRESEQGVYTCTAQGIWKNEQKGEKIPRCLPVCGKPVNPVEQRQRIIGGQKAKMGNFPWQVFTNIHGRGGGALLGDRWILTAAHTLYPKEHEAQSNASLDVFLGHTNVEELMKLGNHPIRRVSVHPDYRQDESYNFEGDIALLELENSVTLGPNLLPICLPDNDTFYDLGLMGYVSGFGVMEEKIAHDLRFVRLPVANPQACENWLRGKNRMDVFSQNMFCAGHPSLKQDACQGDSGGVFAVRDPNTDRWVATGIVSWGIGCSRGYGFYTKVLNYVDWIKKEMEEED

[3] = Inhibition of human recombinant kallikrein using Pro-Phe-Arg-AMC as substrate pretreated with compound followed by substrate addition incubated for 60 mins by multilabel plate reader method

Sequence of Complement factor D (P00746 whole entry): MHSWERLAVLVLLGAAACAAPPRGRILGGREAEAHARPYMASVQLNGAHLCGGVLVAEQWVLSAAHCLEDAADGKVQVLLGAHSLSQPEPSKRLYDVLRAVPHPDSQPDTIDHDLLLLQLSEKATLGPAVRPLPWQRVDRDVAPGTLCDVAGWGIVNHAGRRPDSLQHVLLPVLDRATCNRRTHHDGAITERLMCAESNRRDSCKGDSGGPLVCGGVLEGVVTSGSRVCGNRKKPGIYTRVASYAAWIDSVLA

| SMILES | Ki (Complement factor D) [µM] | Ki [1] [µM] | Ki (Trypsin) [µM] | Ki (Prothrombin) [µM] | Ki [2] [µM] | IC50 [3] [µM] |
| --- | --- | --- | --- | --- | --- | --- |
| CCCc1c(-c2csc(-c3cc(C(=N)N)sc3SC)n2)cnn1-c1ccccn1 | 3.7 | 0.07 | 0.18 | > 50 | ≥ 50 | – |
| Cc1cc([C@H]2CN(c3cc(F)c4c(N)nncc4c3)CCN2c2cccc(F)c2)no1 | – | – | – | – | – | > 30 |

Source: ChEMBL document CHEMBL5380871
